Assay results as given in patent US20130150399A1, “INHIBITORS OF THE UNFOLDED PROTEIN RESPONSE AND METHODS FOR THEIR USE” (The Board of Trustees of the Leland Stanford Junior …, priority 2006, published 2013).

Key:
XBP-luciferase reporter = test: In vivo bioluminescence imaging of XBP-luciferase reporter tumor xenografts; set-up: species or system SCID mice
Procedure: HT1080 fibrosarcoma cells (2×10^6) stably expressing the XBP-luciferase reporter were implanted s.c. into severe combined immune deficient (SCID) mice. Ten minutes prior to imaging, mice were injected i.p. with D-luciferin (150 mg/kg) solubilized in PBS. Optical bioluminescence imaging was performed using the IVIS charged-coupled device camera system (Caliper Life Sciences, Hopkinton, Mass.). Mice were imaged for 1-4 minutes per acquisition scan. Signal intensities were analyzed using Living Image software (Caliper).
A. Irestatin 9389 impairs IRE1α activity in implanted tumor xenografts. Equal numbers (2×10^6) of XBP-luciferase or CMV-luciferase reporter cells were implanted s.c. into SCID mice. After one week, mice were treated with irestatin 9389 (50 mg/kg), followed by optical bioluminescence imaging. B. Inhibition of tumor growth by irestatin 9389. HT1080 s.c. tumor xenografts were established in SCID mice and allowed to reach a mean volume of 150 mm^3 before treatment. Irestatin 9389 (50 mg/kg) or vehicle control was administered q 2d by i.p. injection and continued for 2 weeks, for a total of 6 doses. Tumor volumes were calculated based on caliper measurements taken every 3-5 days. Data points represent the mean volume calculated from at least 7 tumors per group, with SEM shown in one direction. Mean mouse weights+/−SEM are shown in bottom graph. C.
The increased sensitivity of irestatin-treated cells to hypoxic stress in vitro indicate that selective inhibition of IRE1α signaling could impact tumor growth. […] In contrast, XBP-1s was not detected in normal pancreas specimens (0/20), and infrequently observed in chronic pancreatitis (1/29) (FIG. 15). To explore the effects to irestatin 9389 in vivo, we first established animal dosing parameters using real-time bioluminescence imaging of SCID mice that had been implanted subcutaneously (s.c.) with tumor cells stably expressing the XBP-luciferase reporter. […] The XBP-luciferase signal returned to basal levels by 24 hours after treatment. […] (FIG. 16).

CHOP/GADD153 = test: Western blot of CHOP/GADD153, hypoxic HT1080 cells; assay type: cell-based, human; settings: 2.5 μM; hypoxia for 6-12 hours
Procedure: Cells (2×10^6) were cultured in 10-cm dishes, collected using a cell scraper at 4° C., and lysed by addition of 150 μl cell lysis buffer [50 mM Tris pH 7.4, 150 mM NaCl, 10% glycerol, 0.5% Triton X-100. 0.5% NP-40, 2 mM Na3VO4, 20 mM beta-glycerophosphate, 10 mM NaF, 1 mM DTT, 1 mM PMSF). Lysates were centrifuged for 5 min at 10,000×g, and proteins (˜40 μg) were resolved by SDS-PAGE followed by semi-dry transfer to nitrocellulose membranes. Membranes were blocked in TBS-5% milk supplemented with 0.1% Tween-20. The blots were then probed overnight with relevant antibodies, washed, and incubated for 2 hours with species-specific secondary antibodies conjugated to horseradish peroxidase. After washing in block solution, immunoreactive material was detected by enhanced chemiluminescence (SuperSignal West Dura Extended, Pierce, Inc., Rockville, Ill.).
A. Effect of irestatin 9389 on PERK and ATF6 pathways. […] Protein lysates were analyzed by Western blot analysis using antisera specific for ATF6 (top), CHOP/GADD153 (middle) or actin (bottom). […] Cells were harvested, counted, and allowed to grow under normal culture conditions for 11-12 days. […] D. Quantification of clonogenic survival assay. […] F. Quantification of TUNEL-positive cells. […] Cells were harvested at the indicated times and counted by hemocytometer. Values represent the mean calculated from triplicate experiments+/−SEM. […]

Structure (SMILES): Cc1csc(NC(=O)CSc2nc3c(c(C(F)(F)F)c2C#N)CCC3)n1 [Compound 9389]
- time by which XBP-luciferase signal returned to basal levels (XBP-luciferase reporter; after treatment, 50-60 mg/kg): ≤ 24 h
- duration of XBP-luciferase reporter inhibition after the injection (XBP-luciferase reporter; single doses of 50-60 mg/kg): 6 to 8 h
- inhibition of XBP-luciferase reporter in tumors (XBP-luciferase reporter; single doses of 50-60 mg/kg): robustly inhibited
- expression of CHOP/GADD153 (CHOP/GADD153): increased
